Reference: US10172884B2, “Dialysis solutions comprising organic esters of phosphoric acid” (Fresenius Medical Care Deutschland GmbH, priority 2015, dated 2019)

Test: modified rapid controlled precipitation method (controlled degassing of CO2 until precipitation)
Format: physicochemical
Description: The “Rapid-Controlled Precipitation Method” or the “Critical pH Method” can be used for determining the stability of the dialysis solution such as is described in F. Hui et al: Journal European of Water Quality (Journal European d'Hydrologie) T.33 Fasc. 1 (2002).
The results described within the framework of this disclosure were obtained by a modified rapid controlled precipitation method. The experiment setup comprises six 3-neck flasks (Carousel-6 from Radleys) which are open toward the top to ensure a uniform degassing of CO2 from the solution. Furthermore, this setup allows an in-line measurement of e.g. the pH and the conductivity as well as the simultaneous heating of the flasks.
The basic principle of the method used comprises the pH of the mixed solution or of the dialysis solution being slowly raised by controlled degassing of CO2 until the dialysis solution reaches a metastable state and ultimately precipitates.
A pH measurement, a particle count or a turbidity measurement can be used, for example, as methods for detecting the precipitation. […] The measured curves which can be obtained using these methods are compared in FIG. 3. […]
The pHmax and the precipitation products of the different solutions are compiled in Table 4 shown in the following. The values were all determined at 40° C. using the “rapid degassing” method. […]

Q: What does the source list for `O=P(O)(O)OCC(O)CO` (centres unmarked) [glycerol orthophosphate]?
A: Precipitation product (40° C., rapid degassing method): no phosphates low in solubility are formed; stability of the solution (pHmax and tG values) (T=40° C., result in words, FIGS. 10, 12, 13, 15): almost the same stabilizing effect as the addition of 0.1 mmol/L orthophosphate
